TGI and GI50 data for 13 compounds are collected here from PubChem BioAssay (NCI).

Common to all, as to assay: DTP human tumour cell line panel, 48 h
The subject of assay [1] is 786-0 renal.
Assay [2] relates to A549 NSCLC.
Assay [3] has as its system IGROV1 ovarian.
Assay [4] concerns NCI-H460 lung.
The test system of assay [5] is OVCAR-3 ovarian.
The test system of assay [6] is OVCAR-4 ovarian.
Assay [7] relates to SNB-19 CNS.
Assay [8] relates to A498 renal.
Assay [9] relates to RPMI-8226 leukemia.

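96-well plates; 48 h exposure; 5 concentrations. Endpoints by linear interpolation between flanking doses. Not reached: highest tested concentration assigned. GI50 = concentration required for 50% inhibition of growth. TGI denotes the concentration required for complete inhibition of growth.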

Take `CC(=O)c1c2c(cc3c1CC1(C3)Cc3cc4c(c(C(C)=O)c3C1)CCC4)CCC2`: the total growth inhibition concentration (TGI) in [1], in assay [2], in assay [3], in assay [4], in assay [5] and in assay [6] was more than 100 µM each time. The same compound registered a TGI in [7] of more than 100 µM.
Regarding `N/C(=N\N=C\c1ccc(C(F)(F)F)cc1)NO`, the TGI in assay [1] is 37.7 µM; in assay [8], more than 100 µM; in assay [2], 59.2 µM; in assay [3], 33.2 µM; in [4], more than 100 µM; in assay [5], 62.9 µM. In assay [6], this compound displayed a TGI of more than 100 µM.
Take `COC(=O)N/N=C(\C)c1c(O)cc(C)oc1=O`: the TGI in [1], in [8], in assay [2], in [3], in [4] and in [6] was more than 100 µM each time. This compound yielded a TGI in assay [7] of more than 100 µM.
For the compound `O=C(O)[C@H](NS(=O)(=O)c1ccc(F)cc1)c1ccccc1`, the TGI in assay [1], in assay [2], in assay [3], in assay [4], in assay [5] and in assay [6] was more than 100 µM in each case. For the same compound, the concentration for total growth inhibition (TGI) in assay [9] and in assay [7] was more than 100 µM each time.
For the compound `CCCCCCCCCCCCCC[N+](C)(C)CCCCCCCCCCCCCC`, the GI50 was 2.02 µM in [1]; 5.07 µM in [8]; 3.58 µM in assay [5]; 1.77 µM in assay [9]; 2.38 µM in [7]. The TGI worked out at 4.92 µM in assay [1]; 28 µM in assay [8]; 20.5 µM in [5]; 4.44 µM in assay [9]; 10 µM in assay [7].
On to `CC1=C(C(=O)Nc2ccccc2)C(c2cccc3ccccc23)C(C(=O)Nc2ccccc2)=C(C)N1`, for which the TGI in [1] is 52.5 µM; in [8], 48.5 µM; in [2] it was 82 µM; in [3], 56.9 µM; in assay [5], 26.4 µM; in assay [7], 72.5 µM.
As for `O=C1C=CC=C/C1=C1/SC(c2ccccc2)=C(O)N1c1ccccc1`, the TGI in assay [1], in [2], in assay [3], in [5], in assay [6] and in assay [7] was more than 100 µM in each case.
`Cc1cccc(C2SCc3nc4ccccc4n32)c1` (configuration not stated): the TGI in assay [1] was 96.2 µM; in assay [2] it was more than 100 µM; in assay [3] it was more than 100 µM; in assay [4], more than 100 µM; in assay [5], 39.1 µM; in assay [6], more than 100 µM. The compound further had a TGI in [9] of more than 100 µM.
As to `CCOC(=O)/C(=C/c1ccc(C(=O)OC)cc1)N(CC)CC`, the TGI in assay [1] was more than 100 µM; in [2], more than 100 µM; in assay [3], more than 100 µM; in [5], 60 µM; in [6] it was more than 100 µM; in [9], more than 100 µM. Also, the TGI in assay [7] was more than 100 µM.
As for `CC1/C(=N\O)CC(c2ccccc2)N(C)C1c1ccccc1` (configuration not stated), the TGI in assay [1], in [8], in [2], in [3], in assay [4] and in assay [5] was more than 100 µM throughout. The TGI in assay [6] and in assay [7] was more than 100 µM throughout.
As to `Cc1cccc(C)c1NC(=O)C1=NC(=S)NC(c2ccccc2)C1c1nc2ccccc2s1` (configuration not stated), the TGI in assay [1], in [8], in assay [2], in assay [3], in [4] and in assay [5] was more than 100 µM each time. For the same compound, the TGI in assay [6] and in [7] was more than 100 µM in each case.
As for `O=C1CC(c2ccccc2)=Nc2ccccc2N1`, the TGI in assay [1], in assay [8], in assay [2], in [3], in [4] and in [5] was more than 100 µM each time. The TGI in assay [6] and in assay [7] was more than 100 µM each time.
For `CC(=O)Nc1c(Nc2ccccc2)[nH]c(C)nc1=S`, the total growth inhibition concentration (TGI) in assay [1], in [2], in [3], in [4], in [5] and in assay [6] was more than 100 µM throughout. The TGI in [9] and in assay [7] was more than 100 µM each time.

A word on the TGI: it is the concentration at which net growth stops. Read a high TGI as lower sensitivity of the cells. One may read the GI50 as the concentration giving 50% growth inhibition.
